From ChEMBL document CHEMBL1129517, “Pyrazolo[4,3-e]-1,2,4-triazolo[1,5-c]pyrimidine derivatives: potent and selective A(2A) adenosine antagonists” (J Med Chem, 1996)

Assays:
[1] = target: Adenosine receptor A2a (Rattus norvegicus, UniProt P30543)
Description: Inhibition of [3H]-CGS- 21680 binding to Adenosine A2A receptor in rat striatal homogenates.

[2] = target: T1, Adenosine receptor A1 (Rattus norvegicus, UniProt P25099); assay: biochemical
T1 sequence (P25099 whole entry): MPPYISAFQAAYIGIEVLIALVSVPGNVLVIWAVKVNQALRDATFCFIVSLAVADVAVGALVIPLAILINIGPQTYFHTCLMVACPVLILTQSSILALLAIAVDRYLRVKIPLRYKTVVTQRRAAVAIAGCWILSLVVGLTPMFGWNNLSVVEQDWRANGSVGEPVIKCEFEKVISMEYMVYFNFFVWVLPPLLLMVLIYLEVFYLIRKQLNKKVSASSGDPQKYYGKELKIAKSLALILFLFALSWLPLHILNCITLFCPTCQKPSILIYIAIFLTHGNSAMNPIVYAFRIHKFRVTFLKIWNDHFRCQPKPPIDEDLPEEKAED
Description: Inhibition of [3H]-CHA binding to Adenosine A1 receptor in rat whole brain homogenates.

[3] = tested on: Adenosine receptor A2a (Oryctolagus cuniculus)

Adenosine receptor A2a, sequence (P30543 whole entry): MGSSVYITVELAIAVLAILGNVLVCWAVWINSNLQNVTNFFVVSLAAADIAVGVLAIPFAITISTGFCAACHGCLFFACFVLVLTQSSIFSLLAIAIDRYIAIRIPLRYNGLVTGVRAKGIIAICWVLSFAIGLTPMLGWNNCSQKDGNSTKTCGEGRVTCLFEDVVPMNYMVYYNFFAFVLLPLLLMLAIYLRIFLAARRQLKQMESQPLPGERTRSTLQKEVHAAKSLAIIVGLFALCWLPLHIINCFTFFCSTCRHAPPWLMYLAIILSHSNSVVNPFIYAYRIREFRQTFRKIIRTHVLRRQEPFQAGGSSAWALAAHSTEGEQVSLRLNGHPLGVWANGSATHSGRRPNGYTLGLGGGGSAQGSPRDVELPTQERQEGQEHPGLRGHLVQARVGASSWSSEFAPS

SMILES	Ki [1] [nM]	Ki [2] [nM]	ED50 [3] [nM]
CC(C)(C)n1ncc2c1nc(N)n1nc(-c3ccco3)nc21	260	430	
CCC(C)Cn1ncc2c1nc(N)n1nc(-c3ccco3)nc21 (centres undefined)	12	116	
Nc1nc2c(cnn2-c2ccccc2)c2nc(-c3ccco3)nn12	22.7	119	> 1000
Nc1nc2nn(Cc3ccc(F)cc3)cc2c2nc(-c3ccco3)nn12			4
Nc1nc2c(cnn2CCN2CCOCC2)c2nc(-c3ccco3)nn12	5.6	471	30
Nc1nc2n[nH]cc2c2nc(-c3ccco3)nn12	22.6	210	
Nc1nc2c(cnn2Cc2ccc(F)cc2)c2nc(-c3ccco3)nn12	12	189	10600

Results, then the compound that gave them:

Ki [1] [nM]	Ki [2] [nM]	ED50 [3] [nM]	SMILES
77.7			Nc1nc2c(cnn2CCO)c2nc(-c3ccco3)nn12
> 1000	> 1000		Nc1nc2c(cnn2CCOCc2ccccc2)c2nc(-c3ccco3)nn12
166	330		OCCn1ncc2c1nc(NCc1ccccc1)n1nc(-c3ccco3)nc21
22	> 3000	< 1000	CC(C)Cc1ccc(CCn2ncc3c2nc(N)n2nc(-c4ccco4)nc32)cc1
21	2710		Nc1nc2c(cnn2CCCCc2ccccc2)c2nc(-c3ccco3)nn12
		300	CCCCn1ncc2c1nc(N)n1nc(-c3ccco3)nc21
2.4	504		Nc1nc2c(cnn2CCCc2ccccc2)c2nc(-c3ccco3)nn12 [SCH-63390]
